Assay results as given in patent publication US20130337052A1, “System and Method of Reducing Impairment of Alertness, Concentration, Motivation, and Creativity Caused by Medication” (priority 2012, published 2013).

Key:
CB2 receptors = CB2 receptors (Homo sapiens, UniProt P34972); conditions: relative to THC; cited from earlier work
CB1 receptors = CB1 receptors (Homo sapiens, UniProt P21554); conditions: relative to THC; cited from earlier work
[1] = Side effects reported by patients using a medication containing THC; type: in vivo, human; conditions: e.g. Marinol
Description: Patients using cannabinoid medications 10 prescribed for the treatment of symptoms such as pain and experiencing the undesirable side effects of the cannabinoid medications may provide relief through the administration of lithium compounds 30. […] Patients also reported a lack of motivation and a reduction in creativity while taking the medication. As a result, the patients have been unable or unwilling to perform ordinary tasks, such as, e.g., tasks associated with the patient's employment. However, upon treatment with lithium compounds 30, the alertness, concentration, motivation, and creativity of the patients were restored. As a result, the patients were able to continue to work productively while using the cannabinoid-based medication.

[2] = patients received up to 210 milligrams per day; cited from earlier work
[3] = lithium citrate syrup compared to lithium carbonate tablets; cited from earlier work
[4] = 150 milligrams per day; cited from earlier work

CB1 receptors, sequence (P21554 whole entry): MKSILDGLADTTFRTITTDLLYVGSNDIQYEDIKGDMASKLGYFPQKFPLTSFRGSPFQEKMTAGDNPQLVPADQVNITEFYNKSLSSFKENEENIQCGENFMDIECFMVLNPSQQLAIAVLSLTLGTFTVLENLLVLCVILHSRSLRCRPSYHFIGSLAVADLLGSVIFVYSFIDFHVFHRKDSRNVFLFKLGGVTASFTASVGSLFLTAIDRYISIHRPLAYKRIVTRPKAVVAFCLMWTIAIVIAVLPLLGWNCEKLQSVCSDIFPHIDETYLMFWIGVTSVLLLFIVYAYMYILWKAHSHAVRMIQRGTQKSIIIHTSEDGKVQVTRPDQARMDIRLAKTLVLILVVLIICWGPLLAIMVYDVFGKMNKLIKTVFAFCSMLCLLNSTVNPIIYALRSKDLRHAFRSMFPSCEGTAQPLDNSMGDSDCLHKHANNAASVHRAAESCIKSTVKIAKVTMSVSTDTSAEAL
CB2 receptors, sequence (P34972 whole entry): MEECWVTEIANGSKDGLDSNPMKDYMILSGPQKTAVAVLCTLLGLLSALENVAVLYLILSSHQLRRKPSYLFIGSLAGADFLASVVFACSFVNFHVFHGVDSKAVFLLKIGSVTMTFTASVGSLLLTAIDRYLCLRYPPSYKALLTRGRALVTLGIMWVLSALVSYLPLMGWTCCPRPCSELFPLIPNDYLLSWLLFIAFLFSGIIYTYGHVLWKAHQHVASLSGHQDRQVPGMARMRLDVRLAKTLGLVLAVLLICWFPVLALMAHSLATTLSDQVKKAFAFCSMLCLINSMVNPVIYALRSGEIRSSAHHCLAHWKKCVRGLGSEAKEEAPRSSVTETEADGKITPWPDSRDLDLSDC

For CCCCCc1cc(O)c2c(c1)OC(C)(C)c1ccc(C)cc1-2 [CBN, cannabinol], the “agonist effect on the CB2 receptor compared with THC” value (CB2 receptors) is given as “weaker agonist effect” and the “agonist effect on the CB1 receptor compared with THC” value (CB1 receptors) is given as “weaker agonist effect”.

For CCCCCc1cc(O)c2c(c1)OC(C)(C)[C@@H]1CCC(C)=C[C@@H]21 [THC, (−)-trans-Δ9-tetrahydrocannabinol], the “side effects experienced by patients” value [1] is listed as “difficulty staying awake and maintaining concentration” and the “toxic effects in clinical studies” value [2] is listed as “without toxic effects”.

For O=C([O-])CC(O)(CC(=O)[O-])C(=O)[O-].[Li+].[Li+].[Li+] [lithium citrate], the “rate at which lithium enters the body” value [3] is given as “more rapidly”.

In the case of O=C([O-])c1cc(=O)[nH]c(=O)[nH]1.[Li+] [lithium orotate], the “effect in the treatment of alcohol addiction” value [4] is given as “beneficial”.
